# Laboratory results reported in patent US11667636B2, “Modulators of Mas-related G-protein receptor X2 and related products and methods” (Escient Pharmaceuticals, Inc., priority 2020, dated 2023).
# Molecular target: T1, human MRGPRX2 (Homo sapiens, UniProt Q96LB1)
# T1 construct: expressed in transfected cells
# T1 sequence (Q96LB1 1-330): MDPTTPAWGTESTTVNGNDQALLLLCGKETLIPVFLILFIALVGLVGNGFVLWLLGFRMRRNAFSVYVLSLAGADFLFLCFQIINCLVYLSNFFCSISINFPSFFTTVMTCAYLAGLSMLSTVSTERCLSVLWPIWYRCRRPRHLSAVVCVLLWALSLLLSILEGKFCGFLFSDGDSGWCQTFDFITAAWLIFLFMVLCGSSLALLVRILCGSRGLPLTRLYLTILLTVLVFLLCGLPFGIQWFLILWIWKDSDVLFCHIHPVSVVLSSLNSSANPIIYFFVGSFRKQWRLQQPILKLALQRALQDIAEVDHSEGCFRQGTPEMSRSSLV
# Experiment: MRGPRX2 Activity: IP-One HTRF antagonist assay in CHO cells stably expressing human MRGPRX2, versus Cortistatin-14
# Format: cell-based
# Conditions: versus 0.3 uM Cortistatin-14 agonist, IP-1 HTRF, read-out: MRGPR2 Antagonist Activity
# Experimental: CHO cells stably transfected to express human MRGPRX2 were maintained in an incubator at 37° C. with 5% CO2 and grown in F12 (HAM) media with 10% fetal bovine serum (FBS), 1% Glutamax, 1% penicillin/streptomycin, 800 μg/mL Geneticin (G418), and 300 μg/mL Hygromycin B. Cells were plated in a 384-well assay plate at 20,000 cells per well in 12 μL of Opti-MEM and kept in an incubator overnight. On the day of the assay, compounds solubilized at 10 mM in DMSO were added as a 10-point curve (30 uM final top concentration with 1:3 serial dilutions) using a Tecan D300E digital dispenser. Agonists were diluted in assay buffer (final concentrations of 5.7 mM Tris-HCl, 43 mM NaCl, 50 mM LiCl, pH=8) and 2 μL of the agonist Cortistatin-14 (CPC Scientific, catalog CORT-002) are added to each well. Final concentrations of agonists were 0.3 μM Cortistatin-14. Final concentrations of DMSO were kept consistent across the plate. Plates were incubated in the dark for 1 hr at 37° C. and then for 1 hr at room temperature. IP-1 standards and HTRF detection reagents were added according to the IP-One-Gq Kit purchased from Cisbio (part number 62IPAPEJ) and incubated in the dark for 1 hr at room temperature. The plate was read on a Molecular Devices SpectraMax iD5 plate reader. The HTRF ratio was calculated from the raw data and graphed using GraphPad Prism to calculate an IC50 value for each compound.
# The activity ranges are denoted as follows: “+++++” denotes antagonist activity <50 nM; “++++” denotes antagonist activity between 51 and 100 nM; “+++” denotes activity between 101 and 500 nM; “++” denotes activity between 501 and 1000 nM; and “+” denotes activity >1000 nM
row,SMILES,IC50
1,CC(C)(O)Cn1cc(C(=O)N[C@H]2CC[C@@H](Nc3cccc4nc(C(F)F)cn34)CC2)c(Cl)n1 [2-283],0.101 to 0.5 µM
2,COc1ccc(C(=O)N[C@@H]2CCC[C@H](Nc3cccc4sc(C#N)cc34)C2)cc1 [1-16],0.101 to 0.5 µM
3,O=C(N[C@H]1CC[C@@H](Nc2cccc3nc(C(F)(F)F)cn23)CC1)c1cnc[nH]1 [2-11],0.101 to 0.5 µM
4,Cc1ncc(C(=O)N[C@H]2CC[C@@H](Nc3cccc4nc(C(F)(F)F)cn34)CC2)n1C [2-134],0.101 to 0.5 µM
5,COc1ccc(C(=O)N[C@H]2CC[C@@H](Nc3cccc4nc(C(F)(F)F)sc34)CC2)cc1 [1-22],0.051 to 0.1 µM
6,CCOc1cc(C(=O)N[C@H]2CC[C@@H](Nc3cccc4nc(C(F)(F)F)cn34)CC2)ccn1 [2-15],0.101 to 0.5 µM
7,CC(C#N)c1cccc(C(=O)N[C@H]2CC[C@@H](Nc3cccc4sc(C(F)(F)F)cc34)CC2)c1 (stereo partly shown) [2-5],0.101 to 0.5 µM
8,CN(CC(F)F)c1cccc(C(=O)N[C@H]2CC[C@@H](Nc3cccc4nc(C(F)(F)F)cn34)CC2)c1 [2-14],0.051 to 0.1 µM
9,O=C(N[C@H]1CC[C@@H](Nc2cccc3nc(C(F)F)cn23)CC1)c1nn2ccccc2c1NCC(F)F [2-269],0.101 to 0.5 µM
10,CNc1ccccc1C(=O)N[C@H]1CC[C@@H](Nc2cccc3nc(C(F)F)cn23)CC1 [2-276],0.051 to 0.1 µM
11,COc1ccc(C(=O)N[C@@H]2CCC[C@H](Nc3cc(Cl)cc4nc(C(F)(F)F)cn34)C2)cc1 [1-30],0.051 to 0.1 µM
12,N#Cc1cc2c(N[C@H]3CC[C@@H](NC(=O)c4ccc(F)cc4)CC3)cccc2s1 [1-20],0.051 to 0.1 µM
13,COc1ccc(C(=O)N[C@H]2CC[C@@H](Nc3cccc4nc(C(F)F)cn34)CC2)c(Cl)c1 [2-148],0.051 to 0.1 µM
14,O=C(N[C@H]1CC[C@@H](Nc2cccc3nc(C(F)F)cn23)CC1)c1ccc(Cl)cc1Cl [2-275],0.101 to 0.5 µM
15,CNc1ccccc1C(=O)N[C@H]1CC[C@@H](Nc2cccc3nc(C#N)cn23)CC1 [2-262],0.101 to 0.5 µM
16,CCCn1cc(C(=O)N[C@H]2CC[C@@H](Nc3cccc4nc(C(F)F)cn34)CC2)cn1 [2-255],0.101 to 0.5 µM
17,COc1ccc(C(=O)N[C@@H]2CCC[C@H](Nc3cccc4sc(OC)cc34)C2)cc1 [1-14],> 1 µM
18,Cc1n[nH]c2c(C(=O)N[C@H]3CC[C@@H](Nc4cccc5nc(C(F)(F)F)cn45)CC3)ccnc12 [2-247],0.101 to 0.5 µM
19,O=C(N[C@H]1CC[C@@H](Nc2cccc3sc(C(F)(F)F)cc23)CC1)c1cc2ccccn2n1 [2-1],0.051 to 0.1 µM
20,Cc1c(C(=O)N[C@H]2CC[C@@H](Nc3cccc4nc(C(F)(F)F)cn34)CC2)c2ccccc2n1C [2-227],0.101 to 0.5 µM
21,O=C(N[C@H]1CC[C@@H](Nc2cccc3nc(C(F)(F)F)cn23)CC1)c1cnc2nccn2c1 [2-125],0.101 to 0.5 µM

# Second part, the compound after the results:
row,IC50,SMILES
1,< 0.05 µM,Cc1cc2c(C(=O)N[C@H]3CC[C@@H](Nc4cccc5nc(C(F)(F)F)cn45)CC3)cccc2n1C [2-198]
2,0.051 to 0.1 µM,O=C(N[C@H]1CC[C@@H](Nc2cccc3nc(C(F)(F)F)sc23)CC1)c1ccc(F)cc1 [1-19]
3,< 0.05 µM,O=C(N[C@H]1CC[C@@H](Nc2cccc3nc(C(F)(F)F)cn23)CC1)c1ccc2nccn2c1 [2-165]
4,0.051 to 0.1 µM,O=C(N[C@H]1CC[C@@H](Nc2cccc3sc(C(F)F)cc23)CC1)c1ccc(F)cc1 [1-13]
5,< 0.05 µM,O=C(N[C@H]1CC[C@@H](Nc2cccc3nc(C(F)(F)F)cn23)CC1)c1ccnc2cn[nH]c12 [2-126]
6,< 0.05 µM,"Nc1nn(CC(F)F)cc1C(=O)N[C@H]1CC[C@@H](Nc2cccc3nc(C(F)(F)F)cn23)CC1 [Example 6, 3-amino-1-(2,2-difluoroethyl)-N-[4-[[2-(trifluoromethyl)imidazo[1,2-a]pyridin-5 yl]amino]cyclohexyl]pyrazole-4-carboxamide]"
7,0.051 to 0.1 µM,O=C(N[C@H]1CC[C@@H](Nc2cccc3nc(C(F)(F)F)cn23)CC1)c1ccn2ccnc2c1 [2-208]
8,< 0.05 µM,O=C(N[C@H]1CC[C@@H](Nc2cccc3nc(C(F)(F)F)cn23)CC1)c1ccn(CC(F)F)n1 [2-135]
9,< 0.05 µM,O=C(N[C@H]1CC[C@@H](Nc2cccc3nc(C(F)(F)F)cn23)CC1)c1c[nH]nc1C(F)(F)F [2-177]
10,< 0.05 µM,O=C(N[C@H]1CC[C@@H](Nc2cccc3nc(C(F)(F)F)cn23)CC1)c1c[nH]nc1Cl [2-176]
11,< 0.05 µM,CN(CC(F)F)c1ccc(C(=O)N[C@H]2CC[C@@H](Nc3cccc4nc(C(F)(F)F)cn34)CC2)cc1 [2-181]
12,< 0.05 µM,N#Cc1nn(C(F)F)cc1C(=O)N[C@H]1CC[C@@H](Nc2cccc3nc(C(F)(F)F)cn23)CC1 [2-229]
13,< 0.05 µM,O=C(N[C@H]1CC[C@@H](Nc2cccc3nc(C(F)(F)F)cn23)CC1)c1c[nH]nc1C1CC1 [2-141]
14,< 0.05 µM,O=C(N[C@H]1CC[C@@H](Nc2cccc3nc(C(F)F)cn23)CC1)c1cn(C(F)F)nc1C(F)F [2-220]
15,< 0.05 µM,Cn1cc(C(=O)NC2CCC(Nc3cccc4nc(C(F)(F)F)cn34)CC2)c2ccccc21 (stereo not shown) [2-289]
16,< 0.05 µM,"O=C(N[C@H]1CC[C@@H](Nc2cccc3nc(C(F)(F)F)cn23)CC1)c1cn(CC(F)(F)F)nc1Cl [Example 12, 3-chloro-1-(2,2,2-trifluoroethyl)-N-((1s,4s)-4-((2-(trifluoromethyl)imidazo[1,2-a]pyridin-5-yl)amino)cyclohexyl)-1H-pyrazole-4-carboxamide]"

row,IC50,SMILES
1,< 0.05 µM,CC(C)n1cc(C(=O)N[C@H]2CC[C@@H](Nc3cccc4nc(C(F)(F)F)cn34)CC2)c(Cl)n1 [2-294]
2,< 0.05 µM,CCn1cc(C(=O)N[C@H]2CC[C@@H](Nc3cccc4nc(C(F)(F)F)cn34)CC2)c(Cl)n1 [2-293]
3,< 0.05 µM,CN(CC(F)F)c1ccc(C(=O)N[C@H]2CC[C@@H](Nc3cccc4nc(C(F)F)cn34)CC2)cc1 [2-274]
4,< 0.05 µM,"O=C(N[C@H]1CC[C@@H](Nc2cccc3nc(C(F)(F)F)cn23)CC1)c1cn(CC(F)F)nc1Cl [Example 11, 3-chloro-1-(2,2-difluoroethyl)-N-((1 s,4s)-4-((2-(trifluoromethyl)imidazo[1,2-a]pyridin-5-yl)amino)cyclohexyl)-1H-pyrazole-4-carboxamide]"
5,< 0.05 µM,O=C(N[C@H]1CC[C@@H](Nc2cccc3nc(C(F)(F)F)cn23)CC1)c1ccnc2[nH]ccc12 [2-168]
6,< 0.05 µM,"O=C(N[C@H]1CC[C@@H](Nc2cccc3nc(C(F)(F)F)cn23)CC1)c1cn(CC(F)F)nc1C(F)F [Example 8, 1-(2,2-difluoroethyl)-3-(difluoromethyl)-N-[4-[[2-(trifluoromethyl)imidazo[1,2-a]pyridin-5-yl]amino]cyclohexyl]pyrazole-4-carboxamide]"
7,< 0.05 µM,O=C(N[C@H]1CC[C@@H](Nc2cccc3nc(C(F)(F)F)cn23)CC1)c1ccn2cncc2c1 [2-163]
8,< 0.05 µM,O=C(N[C@H]1CC[C@@H](Nc2cccc3nc(C(F)F)cn23)CC1)c1ccnc2cn[nH]c12 [2-253]
9,< 0.05 µM,CC(C)(F)Cn1cc(C(=O)N[C@H]2CC[C@@H](Nc3cccc4nc(C(F)F)cn34)CC2)c(Cl)n1 [2-257]
10,< 0.05 µM,Cc1cc(C(=O)N[C@H]2CC[C@@H](Nc3cccc4nc(C(F)F)cn34)CC2)cn1C(F)F [2-221]
11,< 0.05 µM,O=C(N[C@H]1CC[C@@H](Nc2cccc3nc(C(F)F)cn23)CC1)c1ccnc(NCC(F)F)c1 [2-150]
12,< 0.05 µM,Cn1cc(C(=O)N[C@H]2CC[C@@H](Nc3cccc4nc(C(F)(F)F)cn34)CC2)c(N)n1 [2-246]
13,< 0.05 µM,"Nc1nn(CC(F)(F)F)cc1C(=O)N[C@H]1CC[C@@H](Nc2cccc3nc(C(F)(F)F)cn23)CC1 [Example 7, 3-amino-1-(2,2,2-trifluoroethyl)-N-[4-[[2-(trifluoromethyl)imidazo[1,2-a]pyridin-5-yl]amino]cyclohexyl]pyrazole-4-carboxamide]"
14,< 0.05 µM,O=C(N[C@H]1CC[C@@H](Nc2cccc3nc(C(F)(F)F)cn23)CC1)c1ccccc1NCC(F)F [2-188]
15,< 0.05 µM,CC(C)S(=O)(=O)Nc1ccc(C(=O)N[C@H]2CC[C@@H](Nc3cccc4nc(C(F)(F)F)cn34)CC2)cc1 [2-203]
